Test results taken from patent publication US8623593B1, “GPR 17 agonists and screening assay” (Rheinische Friedrich-Wilhelms-Universität Bonn, priority 2011, dated 2014).
Read-outs that look alike come from different tables or passages of the source.

Key:
Native 1321N1 cells = experiment: calcium mobilization assay, unspecific effects on native 1321N1 cells; format: cell-based, human; details: normalised to response of 100 μM carbachol
Excerpt: (§1) In order to detect the released calcium, cells are loaded with a cell membrane permeable dye, which is converted within the cell into its active form by the cleavage of ester bonds. The active form of the dye binds the released calcium. The fluorescence properties of the dye change after calcium binds to the dye. These changes can be detected automatically and represent the ligand-dependent receptor activation. Cells from two confluently grown (80 to 90%) 175 cm^2 cell culture flasks were needed for a calcium assay using the NOVOstar microplate reader (approximately 150,000 cells per well). Cells were harvested after removing the medium, washed once with PBS buffer and detached using a trypsin/EDTA solution. After incubation for 45 min at 37° C. and 5% CO2, the cells were pelleted by centrifugation (5 min, 200 g). […] The cells were washed twice with 1 ml of KHB buffer (three centrifugation steps, each for 15 sec at 2700 rpm) before being seeded in a 96-well microplate in a total volume of 180 μl. A 10-fold concentrated agonist solution (35 μl) was added to another 96-well microplate with a V-profile. Both plates were placed into the NOVOstar microplate reader and incubated there for 20 min. After incubation, the required gain was determined by the microplate so that the fluorescence background of the cells was between 38,000 and 42,000 fluorescence units. This background is an optimal range for starting the measurement, because it is in the middle of the reader's detection range. Normally, the background in each well of a microplate should be the same. The background was determined by performing a so-called validation. A validation is performed to detect irregularities in cell densities between different wells, fluorescence or absorption properties as well as unspecific antagonist effects. […] Afterwards, 20 μl of agonist were injected from the source plate to the measurement plate by the injector unit of the NOVOstar, and the increase in fluorescence was determined as a function of the calcium efflux resulting from receptor stimulation.

human GPR17 (hGPR17) [1] = biological target: T1, human GPR17 (hGPR17) (Homo sapiens, UniProt Q13304); experiment: calcium mobilization assay in CHO-GPR17 cells; format: cell-based; design: expressed in transfected cells; details: for % of response of compound (± SEM) CHO-GPR17 cells: normalised to response of 0.3 μM RA-II-150; for pEC50 (± SEM) CHO-GPR17: calcium mobilization, CHO-GPR17 cells
Excerpt: In order to investigate potential differences in receptor signalling as a function of the cellular background, GPR17 was additionally expressed and analysed in a further cell system. Therefore, a recombinant Chinese hamster ovary (CHO) cell line stably expressing GPR17 was generated using the Flp-In™ T-Rex™ expression system. Here, expression of GPR17 was induced after adding doxycycline.
as §1

human GPR17 (hGPR17) [2] = biological target: T1, human GPR17 (hGPR17); experiment: calcium mobilization assay in 1321N1-GPR17 cells; format: cell-based; design: expressed in transfected cells; host or cells: 1321N1 human astrocytoma cells, retroviral transfection with pLXSN-GPR17, G418 selection
Method: The sequence for the human GPR17 (short isoform) was subcloned into the vector pLXSN (Clontech Laboratories, CA 94043, USA), which can be used for retroviral transfection of the human astrocytoma cell line 1321N1. […] For the retroviral transfection of 1321N1 astrocytoma cells the packaging cell line GP+envAM12 was cultivated in HXM medium (50 ml of foetal calf serum (FCS), 5 ml of penicillin G/streptomycin solution (final concentration 100 U/ml penicillin, 100 μg/ml streptomycin), 1% ultra glutamine, 0.75 ml of hypoxanthine (10 mg/ml), 12.5 ml of xanthine (10 mg/ml), 1.25 ml of mycophenolic acid (10 mg/ml) and 2 ml of hygromycin B (50 mg/ml) were added to 500 ml DMEM). One day before transfection 1.5×10^6 cells were seeded and incubated overnight at 37° C., 5% CO2 and 95% humidity in a 25 cm^2 cell culture flask containing medium without antibiotics. For at least two hours before transfection the medium was exchanged for 6.25 ml DMEM medium without any additive. Two solutions were prepared for the transfection. The first solution consisted of 25 μl of Lipofectamine™ 2000 (final concentration 2%) and 600 μl of DMEM medium without any additives while the second solution was composed of 6.25 μg of pLXSN-GPR17 and 3.75 μg of pLXSN-VSV-G vector DNA. The second solution was filled up with DMEM medium without any additives. Solution one was incubated for 5 min at room temperature before both solutions were combined and incubated for 20 min, also at room temperature. Afterwards the sample was added to the packaging cell line and incubated for 12-15 h. The medium was then replaced with 3 ml of fresh medium containing 30 μl of a 500 mM sodium butyrate solution. The virus production was stimulated by sodium butyrate and took place by incubation for 48 h at 32° C. and 95% humidity. One day before infection 500,000 of 1321N1 astrocytoma cells were seeded in a 25 cm^2 cell culture flask. After 48 h of virus production, the retroviruses were harvested and sterilised by filtration through a filter with a pore size of […]. The host cell medium was replaced with the sterilized virus supernatant containing 6 μl of polybrene solution (4 mg/ml) and the infection of the host cells took place for further 48 h of incubation at 37° C., 95% humidity and 5% CO2. After incubation, the transfected cells were transferred to a 175 cm^2 cell culture flask and selected by adding medium containing G418. The efficiency of infection and stable transfection using this method was up to 95%.
PLC activation and IP3 accumulation result in a release of calcium from intracellular calcium stores, for example the endoplasmic reticulum. In order to detect the released calcium, cells are loaded with a cell membrane permeable dye, which is converted within the cell into its active form by the cleavage of ester bonds. The active form of the dye binds the released calcium. The fluorescence properties of the dye change after calcium binds to the dye. These changes can be detected automatically and represent the ligand-dependent receptor activation. Cells from two confluently grown (80 to 90%) 175 cm^2 cell culture flasks were needed for a calcium assay using the NOVOstar microplate reader (approximately 150,000 cells per well). Cells were harvested after removing the medium, washed once with PBS buffer and detached using a trypsin/EDTA solution. After incubation for 45 min at 37° C. and 5% CO2, the cells were pelleted by centrifugation (5 min, 200 g). Cells were resuspended in 994 μl of Krebs HEPES buffer (KHB; 118.6 mM NaCl, 4.7 mM KCl, 1.2 mM KH2PO4, 4.2 mM NaHCO3, 11.7 mM D-glucose, 10 mM HEPES (free acid), 1.3 mM MgSO4 and 1.2 mM CaCl2, pH 7.4) and loaded in the absence of light with fluorescent, namely Oregon Green 488 BAPTA-1/AM dye, by incubating them for one hour at 28° C. and 700 rpm in an Eppendorf Thermomixer in the presence of Pluronic F-127. Pluronic F-127 was supplemented so that the cells could better absorb the dye. […]

CHO-K1 cells = experiment: calcium mobilization assay, unspecific effects on native CHO-K1 cells; format: cell-based, Chinese hamster; details: normalised to response of 100 μM ATP
Excerpt: as §1

solubility in solvents = format: physicochemical
[3] = 30 μM compound, normalised to response of 30 μM RA-II-150
[4] = calcium mobilization, 1321N1-GPR17 cells

T1 sequence (Q13304 29-367): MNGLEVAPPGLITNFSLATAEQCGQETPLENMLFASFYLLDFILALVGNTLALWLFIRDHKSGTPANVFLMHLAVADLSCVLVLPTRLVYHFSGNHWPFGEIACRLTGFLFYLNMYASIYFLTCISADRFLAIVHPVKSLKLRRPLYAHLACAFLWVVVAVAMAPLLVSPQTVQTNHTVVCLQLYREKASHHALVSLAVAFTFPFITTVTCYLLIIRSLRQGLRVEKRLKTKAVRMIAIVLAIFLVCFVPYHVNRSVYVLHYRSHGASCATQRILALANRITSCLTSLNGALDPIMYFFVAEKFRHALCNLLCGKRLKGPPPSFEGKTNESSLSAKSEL

| pEC50 (± SEM) CHO-GPR17 (human GPR17 (hGPR17) [1]) | % of response of 30 μM compound (± SEM) 1321N1-GPR17 (human GPR17 (hGPR17) [2]; [3]) | pEC50 (± SEM) 1321N1-GPR17 (human GPR17 (hGPR17) [2]; [4]) | SMILES | % response of 30 μM compound (± SEM) Native 1321N1 cells (Native 1321N1 cells) | further results |
| --- | --- | --- | --- | --- | --- |
| 6.47 (0.05) | 76 (6) % | 4.86 (0.10) | Cc1cc(C)c2c(CCC(=O)O)c(C(=O)O)[nH]c2c1 [3-(2-Carboxyethyl)-4,6-dimethyl-1H-indole-2-carboxylic acid] | 1 (1)/1 (1) (1 μM compound) % | % of response of compound (± SEM) CHO-GPR17 cells (human GPR17 (hGPR17) [1]; 1 μM compound): 68 (2) %; % response of compound (± SEM) CHO-K1 cells (CHO-K1 cells; 1 μM compound): 1 (1)/1 (1) (1 μM compound) % |
|  |  | 5.52 | O=C(O)CCc1c(C(=O)O)[nH]c2cc(-c3ccccc3)cc(-c3ccccc3)c12 [3-(2-Carboxyethyl)-4,6-diphenyl-1H-indole-2-carboxylic acid] |  |  |
| 7.87 (0.16) |  | 6.71 (0.01) | O=C(O)CCc1c(C(=O)O)[nH]c2cc(Br)cc(Br)c12 [3-(2-Carboxyethyl)-4,6-dibromo-1H-indole-2-carboxylic acid] | 0 (1) % | solubility in methanol, ethanol and ethyl acetate (solubility in solvents; methanol, ethanol, ethyl acetate): well soluble; solubility in petrol ether, water, hexane (solubility in solvents; petrol ether, water, hexane): slightly soluble; % of response of compound (± SEM) CHO-GPR17 cells (human GPR17 (hGPR17) [1]; 0.3 μM compound): 89 (2) %; % of response of compound (± SEM) 1321N1-GPR17 (human GPR17 (hGPR17) [2]; 10 μM compound, normalised to response of 30 μM RA-II-150): 106 (1) %; % response of compound (± SEM) CHO-K1 cells (CHO-K1 cells; 0.3 μM compound): 0 (0) % |
|  |  | 6.14 | O=C(O)CCc1c(C(=O)O)[nH]c2cc(-c3ccccc3)ccc12 [3-(2-Carboxyethyl)-6-phenyl-1H-indole-2-carboxylic acid] |  |  |
|  |  | 5.50 | O=C(O)CCc1c(C(=O)O)[nH]c2cc(Br)ccc12 [3-(2-Carboxyethyl)-6-bromo-1H-indole-2-carboxylic acid] |  |  |
| 6.79 (0.10) | 77 (2) % | 5.13 (0.13) | O=C(O)CCc1c(C(=O)O)[nH]c2cc(F)cc(F)c12 [3-(2-Carboxyethyl)-4,6-difluoro-1H-indole-2-carboxylic acid] | 2 (1) % | % of response of compound (± SEM) CHO-GPR17 cells (human GPR17 (hGPR17) [1]; 3 μM compound): 97 (5) %; % response of compound (± SEM) CHO-K1 cells (CHO-K1 cells; 3 μM compound): 1 (2) % |
|  |  | 6.15 | O=C(O)CCc1c(C(=O)O)[nH]c2cc(I)ccc12 [3-(2-Carboxyethyl)-6-iodo-1H-indole-2-carboxylic acid] |  |  |
|  | 80 (6) % |  | O=C(O)CCc1c(C(=O)O)n(CCC(=O)O)c2cc(Cl)cc(Cl)c12 | 1 (1)/1 (1) (1 μM compound) % | % of response of compound (± SEM) CHO-GPR17 cells (human GPR17 (hGPR17) [1]; 1 μM compound): 85 (5) %; % response of compound (± SEM) CHO-K1 cells (CHO-K1 cells; 1 μM compound): 1 (1)/1 (1) (1 μM compound) % |
| 7.69 (0.10) | 84 (6) % | 5.43 (0.14) | O=C(O)CCc1c(C(=O)O)[nH]c2cc(Cl)ccc12 [3-(2-Carboxyethyl)-6-chloro-1H-indole-2-carboxylic acid] | 4 (3) % | % of response of compound (± SEM) CHO-GPR17 cells (human GPR17 (hGPR17) [1]; 1 μM compound): 94 (7) %; % response of compound (± SEM) CHO-K1 cells (CHO-K1 cells; 0.3 μM compound): 1 (2) % |
|  |  | 5.32 | O=C(O)CCc1c(C(=O)O)[nH]c2cc(I)cc(I)c12 [3-(2-Carboxyethyl)-4,6-diiodo-1H-indole-2-carboxylic acid] |  |  |

| SMILES | pEC50 (± SEM) CHO-GPR17 (human GPR17 (hGPR17) [1]) | % of response of 30 μM compound (± SEM) 1321N1-GPR17 (human GPR17 (hGPR17) [2]; [3]) | pEC50 (± SEM) 1321N1-GPR17 (human GPR17 (hGPR17) [2]; [4]) | % response of 30 μM compound (± SEM) Native 1321N1 cells (Native 1321N1 cells) | further results |
| --- | --- | --- | --- | --- | --- |
| O=C(O)CCc1c(C(=O)O)[nH]c2cc(Cl)cc(Cl)c12 [RA-II-150, 3-(2-carboxyethyl)-4,6-dichloro-1H-indole-2-carboxylic acid] | 6.09 (0.06)/ 8.20 (0.08) |  |  | 0 (3) % | % of response of compound (± SEM) CHO-GPR17 cells (human GPR17 (hGPR17) [1]; 0.3 μM compound): 100 (0)/100 (0) (0.3 μM compound) %; % of response of 30 μM compound (± SEM) 1321N1-GPR17 (human GPR17 (hGPR17) [2]): 100 (0)/100 (0) (0.3 μM compound) %; pEC50 (± SEM) 1321N1-GPR17 (human GPR17 (hGPR17) [2]): 6.09 (0.06)/ 8.20 (0.08); % response of compound (± SEM) CHO-K1 cells (CHO-K1 cells; 0.1 μM compound): 0 (1) % |
